From US20130244255A1, “ANTIBODIES DIRECTED TO GPNMB AND USES THEREOF” (priority 2006, published 2013) come the findings set out here.

Entries after “also recorded” stand apart in the source; their conditions may differ. Structures can show the parent of a compound that is named as a salt. Where a SMILES comes first, the peptide text is derived from it. [ ]: non-standard residue; d: D form. The star is where a group is joined. Dolaproine = CO[C@@H]([C@@H]1CCCN1)[C@@H](C)C(=O)O; Dil = CC[C@H](C)[C@H](NC)[C@@H](CC(=O)O)OC; X1 = C[C@@H](N*)[C@@H](O)c1ccccc1; NMeV = CN[C@H](C(=O)O)C(C)C

Assay [1] has as its system SK-MEL-2 human melanoma xenograft. Kind of assay: SK-MEL-2 human melanoma xenograft in athymic mice. Format: in vivo. As for the experimental part: Five- to 6-week old athymic mice (CD-1 nu/nu females), used for human tumor xenografts, were obtained from Harlan Laboratories (Indianapolis, Ind.). Animals were housed in specific pathogen-free conditions, according to the guidelines of the Association for Assessment and Accreditation of Laboratory Animal Care International (AAALAC International). Test animals were provided pelleted food and water ad libitum and kept in a room with conditioned ventilation (HVAC), temperature (22°±2° C.), relative humidity (55%±15%), and photoperiod (12 hr). All studies were carried out with approved institutional animal care and use protocols.
(§1) The tumor inhibitory activity of the CR011-MMAE immunoconjugate was measured in an anti-tumor xenograft model using athymic mice, according to published methods (see Geran et al., Cancer Chemother. Rep. 3:1-104 (1972)). […] When tumors became established (10-20 days), the animals were pair-matched into groups (n=6 mice/group), and treatment was administered by intravenous injection (tail vein).
(§2) The SK-MEL-2 human melanoma (ATCC #HTB-68) was derived from a metastatic site (skin of thigh) of a person with malignant melanoma, and the SK− MEL-5 human melanoma (ATCC #HTB-70) was derived from a metastatic site (axillary lymph node) of a person with malignant melanoma (see Fogh et al., J. Natl. Cancer Inst. 59: 221-226 (1977)). Both cell lines were obtained from the American Type Culture Collection.
(§3) The effects of treatment were monitored by repetitive tumor measurements across 2 diameters with Vernier calipers; tumor size (in mg) was calculated using a standard formula, (W^2×L)/2, assuming a specific gravity of 1.0. Tumor size and body weights were assessed twice weekly. Mice were examined daily, however, and moribund animals were humanely euthanized if clinical indications of excessive pain or distress were noted (i.e., prostration, hunched posture, paralysis/paresis, distended abdomen, ulcerations, abscesses, seizures, and/or hemorrhages) Animals with tumors exceeding 2,000 mg were removed from the study and euthanized humanely.
No apparent or statistically significant anti-tumor effects were observed. […] In preliminary studies, tumor regression was complete and was not followed by regrowth of the tumor despite lengthy observation periods (up to 200 days).

In assay [2] the test system is SK-MEL-5 human melanoma xenograft. Kind of assay: SK-MEL-5 human melanoma xenograft in athymic mice. The assay is classed as in vivo. The procedure:
as §1, §2, §3
Soon after the commencement of treatment with paclitaxel, however, significant tumor growth inhibition was observed (P≦0.039) at day 3 after treatment began, and this anti-tumor effect continued, producing 100% growth inhibition (stasis). The responses of SK-MEL-5-bearing test animals to vinblastine and paclitaxel were short-lived. After cessation of treatment at the maximally tolerated doses, tumors resumed rapid, progressive growth.
Background: Xenograft models place foreign cells or tissue in a host animal.

The next assay has as its system SK-Mel-2 cells. Kind of assay: ADCC assay with human PBMC (DELFIA EuTDA cytotoxicity). The assay is classed as cell-based. Particulars: 30 to 100 fold PBMC; 2, 5, 10 μg/200 μl mAb. As for the experimental part: Human PBMC were isolated from whole blood using a Ficoll-Plaque. Briefly, in a 50 mL tube, 15 mL of PBS was added to 20 mL of whole blood which was underlayed with 10 mL Ficoll-Plaque and the tube was centrifuged at 2000 RPM. Mononuclear cells were collected from the interface and washed 3 times with PBS. The ADCC assay was carried out in a 96 well plate using a fluorescence assay for cytolysis from Perkin-Elmer (DELFIAEuTDA Cytotoxic assay). The procedure is based on loading target cells with a fluorescence enhancing ligand (BATDA, bis (acetoxymethyl) terpyridine—dicarboxylate). The hydrophic ligand penetrates the membrane quickly. Within the cell the esterbonds are hydrolyzed to form a hydrophilic ligand (TDA, terpyridine—dicarboxylic acid) which can no longer pass through the membrane. After cytolysis the ligand is released and introduced to the Europium solution. The europium and the ligand form a highly fluorescent and stable chelate (EuTDA). Fluorescence intensity are recorded using excitation and emission wavelengths as λex=340 nm and λem=613 nm, respectively.

For another assay, the target named is T1, CG56972/GPNMB (Homo sapiens, UniProt Q14956).
T1 construct: endogenous in cells; host or cells: UACC-62 and a panel of melanoma lines (A5); SK-MEL-2 (A52); SK-Mel-5 (A63)
T1 sequence (Q14956 23-572): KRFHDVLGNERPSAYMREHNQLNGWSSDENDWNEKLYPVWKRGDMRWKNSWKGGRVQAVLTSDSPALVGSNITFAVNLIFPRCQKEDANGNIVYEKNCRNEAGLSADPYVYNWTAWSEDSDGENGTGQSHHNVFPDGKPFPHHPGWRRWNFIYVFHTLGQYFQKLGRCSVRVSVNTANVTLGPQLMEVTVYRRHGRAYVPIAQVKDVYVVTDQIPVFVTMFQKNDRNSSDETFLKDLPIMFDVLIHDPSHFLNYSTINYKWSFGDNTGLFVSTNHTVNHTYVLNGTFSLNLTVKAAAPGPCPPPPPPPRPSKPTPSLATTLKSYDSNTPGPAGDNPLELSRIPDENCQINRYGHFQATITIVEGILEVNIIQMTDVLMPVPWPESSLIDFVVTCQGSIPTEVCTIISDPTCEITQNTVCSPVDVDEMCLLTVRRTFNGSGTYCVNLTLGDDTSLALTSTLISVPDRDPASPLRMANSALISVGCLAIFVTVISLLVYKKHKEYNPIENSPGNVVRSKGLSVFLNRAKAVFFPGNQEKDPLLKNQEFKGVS
In words: FACS binding of CR011 IgG1 and IgG2 on SK-MEL-2 cells. In general terms: Flow cytometry measures light scatter and fluorescence of single cells or particles in a stream.

A further assay relates to UACC-62. In words: Anti-GPNMB antibody mediated indirect cell killing (saporin secondary conjugate, colony count). Particulars: 5-FU 600 uM; antibodies with saporin toxin-conjugated secondary antibody. Format: cell-based, human. As for the experimental part: UACC-62, a GPNMB antigen expressing cell line, and TK10, a non-expressing cell line were plated onto flat bottom 96-well tissue culture plates (Becton Dickinson, Franklin Lakes, N.J., USA) at a density of 3000 cells per well. Once the cells reached ˜25% confluency, 100 ng/well of secondary antibody-toxin conjugate (goat anti-human IgG-saporin; Advanced Targeting Systems, San Diego, USA, HUM-ZAP; cat #IT-22) was added. Anti-GPNMB MAbs 2.10.2, 2.22.1, 1.15.1 or isotype control mAb (pK16.3) were added to each well at a final concentration of 10 or 50 μg/mL. An anti-EGFR monoclonal antibody (MS-269-PABX, NeoMarkers, Fremont, Calif., USA) was used as a positive primary antibody control. Chemotherapy reagent 5-FU at 600 uM was used as a positive reagent control. On day 5, the cells were trypsinized, transferred to 6-well tissue culture plates and incubated at 37° C. Plates were examined daily and between 8-10 days, all plates were Giemsa stained and colonies were counted.

Consider `CC[C@]1(O)C[C@@H]2CN(CCc3c([nH]c4ccccc34)[C@@](C(=O)OC)(c3cc4c(cc3OC)N(C)[C@H]3[C@@](O)(C(=O)OC)[C@H](OC(C)=O)[C@]5(CC)C=CCN6CC[C@]43[C@@H]65)C2)C1` [Vinblastine, vinblastine sulfate, reference compound], for which the “anti-tumor effect (in words)” value in assay [1] (i.v., CR011-vcMMAE 20, 10, 5 or 2.5 mg/kg q4d×4, vinblastine […] q4d×4) is on record as “very slight, but not significant, anti-tumor effect”; in assay [2] (i.v., CR011-vcMMAE 1.25 to 20 mg/kg q4d×4, vinblastine […] q4d×4), “noticeable, but not significant tumor growth inhibition”.

As for “CR011 IgG1 mAb: CR011 mAb 1.15.1 switched to IgG1 constant region; heavy chain SEQ ID NO: 395”, the “cytolysis of SK-MEL-2 cells (ADCC)” value in the assay on SK-Mel-2 cells is recorded as “caused cytolysis of SK-MEL-2 cells in a dose dependent manner”. Also, in the assay with CG56972/GPNMB, the “FACS shift on SK-MEL-2 cells vs isotype control mAbs” value is “comparable FACS shifts”.

For `CC[C@H](C)[C@@H]([C@@H](CC(=O)N1CCC[C@H]1[C@H](OC)[C@@H](C)C(=O)N[C@H](C)[C@@H](O)c1ccccc1)OC)N(C)C(=O)[C@@H](NC(=O)[C@@H](NC)C(C)C)C(C)C` [monomethylauristatin E, reference compound] (H-[NMeV]V[Dil][Dolaproine]-X1), the “tumor growth inhibition by components of the immunoconjugate (in words)” value in assay [1] (doses identical to that contained in the intact immunoconjugate (5 mg/kg q4d×4)) was “lack of responses; also recorded: lack of tumor growth inhibition”.

Consider `CC(=O)O[C@H]1C(=O)[C@@]2(C)[C@H]([C@H](OC(=O)c3ccccc3)[C@]3(O)C[C@H](OC(=O)[C@H](O)[C@@H](NC(=O)c4ccccc4)c4ccccc4)C(C)=C1C3(C)C)[C@]1(OC(C)=O)CO[C@@H]1C[C@@H]2O` [Paclitaxel, paclitaxel, reference compound], for which the “growth inhibition (tumor stasis)” value in assay [1] (paclitaxel i.v. 24 mg/kg q2d×4, for approximately 2 weeks after treatment commenced) is reported as 100%. In addition, the “growth inhibition (stasis)” value in assay [2] (paclitaxel 24 mg/kg i.v. q2d×4) amounted to 100%. The “long-term, tumor-free survivor” value in assay [2] (paclitaxel group) was “One”.

On to `O=c1[nH]cc(F)c(=O)[nH]1` [Mab 5-FU], for which, in the assay with UACC-62, the “effect on UACC-62 cells (in words)” value is “complete killing”.
